Here are results for four molecules from patent US20110262502A1, “PULMONARY DELIVERY OF 17-HYDROXYPROGESTERONE CAPROATE (17-HPC)” (Prairie Pharmaceuticals LLC, priority 2010, published 2011).

Broadly, the inhibition is how much of the control response was suppressed. A word on the IC50: it is the concentration that inhibits the measured activity by half.

Read-outs that look alike come from different tables or passages of the source. Where only a bound is given, the exact number is not on record here.

In assay [1] the test system is mitogen-activated protein kinase. The conditions noted are these: rat uterine smooth muscle; cited from earlier work.
In assay [2] the test system is PHA-induced IL-2 production in PBMCs. In words: PHA-induced IL-2 production in PBMCs from healthy male smokers (no IL-2/IL-4 added), ELISA. Format: cell-based, human. The following applies: for levels of IL-2 in PBMCs: FIG. 1; for % inhibition of PHA stimulation of IL-2: Table 2. The protocol:
PBMCs were isolated from human blood buffy coats provided by a regional blood center. Random buffy coat cells from male donors were a by-product of blood processed for clinical use and no details (i.e., personal identification and background) were provided except for tobacco use. […] PBMCs were separated using a porous high density polyethylene barrier (HISTOPAQUE from GEHealthcare Bio-Sciences AB (US). After centrifugation of blood samples in each tube (35 minutes at 800×g at room temperature, or RT), PBMCs were collected and washed twice with Hank's buffered saline solution (HBSS). PBMCs were resuspended in RPMI-1640 medium containing 10% fetal calf serum (FCS) and 15 mM glutamine and cells were counted and plated.
(§1) PBMCs (2×10^6) were incubated with or without IL-2 (13 ng/ml) and IL-4 (6.5 ng/ml) for 48 hours in RPMI-1640 medium containing 10% FCS and 2 mM glutamine. […] IL-2 and IL-4 stimulated PBMCs were also plated at a concentration of 10^6 cells/ml in 96-well plates ready for PHA (15 μg/mL, 24 hours) stimulation of cytokine release and detection by ELISA.
Serial dilutions of standards and PBMCs' supernatants were measured by enzyme linked immunosorbent assay to determine IL-2 at baseline and its levels after 17HPC, P4 and MAP treatments. Optical density was measured at 450 nm and corrected with 550 nm. The concentration of TL-2 was calculated using the standard curve and taking into account the supernatant dilution used. Detection limit for IL-2 is 4.0 pg/ml.
Data are expressed as mean±SD. The efficacies of the drug treatments were analyzed by paired t-test. One-way analysis of variance was used to compare three or more matched groups and 95% CI was performed to present groups differences. All graphs indicate mean values of results or % inhibition of PHA-stimulated IL-2. IC50 values were calculated by using a sigmoidal model (BioDataFit). A p value <0.05 was considered statistically significant.
(§2) IL-2 levels were quantified using ELISA.
IL-2 levels were quantified using ELISA. IC50 values were calculated by using a sigmoidal model (BioDataFit).
as §2, §2, §2
A general note: In an ELISA, binding on a coated surface is turned into a signal by an enzyme label.

The test system of assay [3] is PHA-induced IL-2 release in IL-2 and IL-4 treated (steroid resistant) PBMCs. In words: IL-2/IL-4 induced steroid resistance model in PBMCs: dexamethasone inhibition of PHA-induced IL-2 release. Format: cell-based, human. The protocol: J Immunol 2009; 183; 164-171). […] Following PBMCs stimulation with mitogen phytohaemagglutinin (PHA), there is a strong correlation between cytokine secretion levels and steroid resistance as well as steroid sensitivity in vitro. Addition of IL-2, IL-4 and TNF-reduce steroid sensitivity.
as §1
IL-2/4 induced steroid resistance in PBMCs, a well-recognized study model, was used to evaluate potential modifiers of steroid resistance and sensitivity. PBMCs from healthy smokers were collected. Corticosteroid insensitivity or resistance was induced by adding IL-2 and IL-4 in peripheral blood mononuclear cells (PBMCs) from healthy male smokers (n=˜11). […] IL-2 levels were quantified using ELISA.
J Immunol 2009; 183; 164-171).
as §2

Assay [4] has as its system females with severe asthma. The conditions noted are these: sublingual; sixteen patients; cited from earlier work.
For assay [5], the system named is patients with severe premenstrual exacerbations of asthma. The following applies: intramuscular, added to regimen incl. corticosteroids; 3 cases; cited from earlier work.
The mark [6] stands for this setting: Homo sapiens, PBMC, read-out: % inhibition of PHA-induced IL-2 production.
Setting [7] is: Homo sapiens, PBMC, read-out: IL-2 inhibition.
Setting [8] is: MPA 10^−5M + Dexamethasone 10E−8M.
Where [9] appears, read: MPA 10^−8M + Dexamethasone 10E−8M.
Where [10] appears, read: MPA 10^−8M + Dexamethasone 10E−11M.
Where [11] appears, read: MPA 10^−10M + Dexamethasone 10E−8M.
Setting [12] is: Example 8, Dexamethasone only 10E−6M.
[13] abbreviates: Example 8, Dexamethasone only 10E−8M.
Setting [14] is: Example 8, Dexamethasone only 10E−11M.
The mark [15] stands for this setting: Homo sapiens, PBMC, read-out: % inhibition on PHA-induced IL-2 production.
Setting [16] is: P4 10^−5M + Dexamethasone 10E−8M.
Where [17] appears, read: P4 10^−8M + Dexamethasone 10E−8M.
Where [18] appears, read: P4 10^−8M + Dexamethasone 10E−11M.
Setting [19] is: P4 10^−10M + Dexamethasone 10E−8M.

Consider estradiol-17 beta [estrogen], for which the “effect on MAPK tyrosine phosphorylation and membrane-associated MAPK activity” value in assay [1] is “increased MAPK tyrosine phosphorylation and membrane-associated MAPK activity”.
In the case of `CC(=O)O[C@]1(C(C)=O)CC[C@H]2[C@@H]3C[C@H](C)C4=CC(=O)CC[C@]4(C)[C@H]3CC[C@@]21C` [MPA, MEDROXYPROGESTERONE ACETATE], in assay [2] (Homo sapiens, PBMC), the inhibition at 0.01 µM amounted to 78%. In assay [2] (Homo sapiens, PBMC), the inhibition at 10 µM was 95%. Moreover, the inhibition at 0.0001 µM is 73% in assay [2] (setting [6]) and not below 86% in assay [2] (setting [7]). The “% inhibition of PHA-induced IL-2 production” value in assay [2] (setting [8]) is listed as “(98%)”; in assay [2] (setting [9]) it was 96%; in assay [2] (setting [10]), “(83%)”; in assay [2] (setting [11]), “(94%)”. The “mean IL-2” value in assay [2] (setting [8]) was determined as 12.3 pg/mL; in assay [2] (MPA 10^−5M, PHA, no Dexamethasone) it was 39.8 pg/mL; in assay [2] (setting [9]), 29.2 pg/mL; in assay [2] (setting [10]) it was 129.1 pg/mL; in assay [2] (MPA 10^−8M, PHA, no Dexamethasone), 166.9 pg/mL; in assay [2] (setting [11]), 44.7 pg/mL. The “mean IL-2” value in assay [2] (MPA 10^−10M, PHA, no Dexamethasone) was found to be 206.1 pg/mL. Moreover, the “improvement in corticosteroid sensitivity, responding sub-group” value in assay [3] (FIG. 9, Dexamethasone 10^−10 M) is listed as “up to 58%”. In assay [3] (FIG. 9, Dexamethasone 10^−10 M), the “reduction (worsening) in corticosteroid sensitivity, other sub-group” value is reported as “up to 88%”.
As to `C[C@@H]1C[C@H]2[C@@H]3CCC4=CC(=O)C=C[C@]4(C)[C@@]3(F)[C@@H](O)C[C@]2(C)[C@@]1(O)C(=O)CO` [Dexamethasone], the entries for the “% inhibition of PHA-induced IL-2 production” value in assay [2] (setting [12]), in assay [2] (setting [13]) and in assay [2] (setting [14]) were “(86%)”, 67% and “(72%)”, respectively. The “mean IL-2” value in assay [2] (setting [12]) is listed as 109.6 pg/mL; in assay [2] (setting [13]) it was 251.6 pg/mL; in assay [2] (setting [14]), 216.1 pg/mL; in assay [2] (Table 1, Dexamethasone only 10^−6M) it was 160.6 pg/mL; in assay [2] (Table 1, Dexamethasone only 10^−8M), 398.1 pg/mL; in assay [2] (Table 1, Dexamethasone only 10^−10M), 312.7 pg/mL. The “mean IL-2” value in assay [2] (Table 1, Dexamethasone only 10^−12M) is 371.7 pg/mL. The “levels of IL-2 in PBMCs” value in assay [2] (dex 10^−8M, PHA, n=17, mean±SD) was found to be 293 ± 338 pg/mL; in assay [2] (dexamethasone 10^−6M, PHA, n=17, mean±SD), 144 ± 157 pg/mL; in assay [2] (dexamethasone 10^−10 M, PHA, n=14, mean±SD), 287 ± 313 pg/mL; in assay [2] (dexamethasone 10^−12 M, PHA, n=11, mean±SD), 371 ± 447 pg/mL. Further, the inhibition at 1 µM in assay [2] (Homo sapiens, PBMC) came out at 87%; in assay [3] (setting [15]), 21%. The 50% inhibitory concentration (IC50) was 0.001 to 0.0631 nM in assay [2] (Homo sapiens, PBMC, Dexamethasone+17HPC at lower 17HPC concentrations, read-out: Dexamethasone-IC50); 31.6 nM in assay [2] (Homo sapiens, PBMC, read-out: Dexamethasone IC50, Dexamethasone only, sigmoidal model, N=14); 25.4 nM in assay [2] (Homo sapiens, PBMC, read-out: Dexamethasone IC50, with 17HPC 10^−5M add-on); 0.0627 nM in assay [2] (Homo sapiens, PBMC, read-out: Dexamethasone IC50, with 17HPC 10^−10M add-on). Further, the inhibition at 0.0001 µM in assay [2] (setting [15]) came to 52%. For the same molecule, the “% inhibition of PHA stimulation of IL-2” value was found to be 78% in assay [2] (Dexamethasone only 10^−6 M (Imax)), 46% in assay [2] (Dexamethasone only 10^−8 M), 57% in assay [2] (Dexamethasone only 10^−10 M) and 49% in assay [2] (Dexamethasone only 10^−12 M). Also, in assay [2] (no PHA stimulation, data not shown), the “effect in basal IL-2 level” value is on record as “no significant effect”. Besides, the “% inhibition on PHA-induced IL-2 production” value in assay [3] (FIG. 2, Dexamethasone 10^−10 M, with addition of IL-2 and IL-4) is “no inhibition”. In assay [3] (FIG. 5, Dexamethasone 10^−10 M without 17HPC), the “PHA-induced IL-2 level” value is 2364 pg/mL.
For the molecule `CC(=O)[C@H]1CC[C@H]2[C@@H]3CCC4=CC(=O)CC[C@]4(C)[C@H]3CC[C@]12C` [P4, Progesterone], in assay [1], the “effect on MAPK tyrosine phosphorylation and membrane-associated MAPK activity” value was “increased MAPK tyrosine phosphorylation and membrane-associated MAPK activity”. In assay [2] (Homo sapiens, PBMC), the inhibition at 0.01 µM came out at 36%. Also, the inhibition at 10 µM in assay [2] (Homo sapiens, PBMC) turned out to be 85%. Further, the inhibition at 0.0001 µM in assay [2] (setting [6]) was 34%; in assay [2] (setting [7]) it was not below 86%. Further, the “% inhibition of PHA-induced IL-2 production” value is listed as “(89%)” in assay [2] (setting [16]), “(88%)” in assay [2] (setting [17]), “(87%)” in assay [2] (setting [18]) and “(92%)” in assay [2] (setting [19]). Also, the “mean IL-2” value in assay [2] (setting [16]) is 81.2 pg/mL; in assay [2] (P4 10^−5M, PHA, no Dexamethasone), 113.8 pg/mL; in assay [2] (setting [17]), 91.4 pg/mL; in assay [2] (setting [18]), 100.8 pg/mL; in assay [2] (P4 10^−8M, PHA, no Dexamethasone), 486.2 pg/mL; in assay [2] (setting [19]), 59.6 pg/mL. Further, in assay [2] (P4 10^−10M, PHA, no Dexamethasone), the “mean IL-2” value turned out to be 506.9 pg/mL. The “subjects with more than 10% improvement in maximal Dexamethasone inhibition” value in assay [3] (FIGS. 7-8, Dexamethasone 10^−10 M) was 6 out of 8. The “patients with an increase in both FEV1 and FVC” value in assay [4] is 50%. The “patients with an increase of 27% or greater in PEF” value in assay [4] was 50%. Also, the “patients with bronchodilator effect (greater than 12% increase) in either FEV1 or FVC” value in assay [4] was 75%. Further, the “effect on premenstrual fall in peak flow rate” value in assay [5] was “eliminated the premenstrual dips in peak flow”.
